Reference: paper PMC5410595, “In Vitro and In Silico Antidiabetic and Antimicrobial Evaluation of Constituents from Kickxia ramosissima (Nanorrhinum ramosissimum)” (Frontiers in Pharmacology, 2017)
Entries after “also recorded” stand apart in the source; their conditions may differ. Like-named read-outs stand apart in the source and are kept apart here.

Tests used:
Format in all cases: biochemical
15-LOX from soybean = target: T1, 15-LOX from soybean (Glycine max, UniProt P08170); test: 15-lipoxygenase inhibition assay
T1 sequence (P08170 1-839): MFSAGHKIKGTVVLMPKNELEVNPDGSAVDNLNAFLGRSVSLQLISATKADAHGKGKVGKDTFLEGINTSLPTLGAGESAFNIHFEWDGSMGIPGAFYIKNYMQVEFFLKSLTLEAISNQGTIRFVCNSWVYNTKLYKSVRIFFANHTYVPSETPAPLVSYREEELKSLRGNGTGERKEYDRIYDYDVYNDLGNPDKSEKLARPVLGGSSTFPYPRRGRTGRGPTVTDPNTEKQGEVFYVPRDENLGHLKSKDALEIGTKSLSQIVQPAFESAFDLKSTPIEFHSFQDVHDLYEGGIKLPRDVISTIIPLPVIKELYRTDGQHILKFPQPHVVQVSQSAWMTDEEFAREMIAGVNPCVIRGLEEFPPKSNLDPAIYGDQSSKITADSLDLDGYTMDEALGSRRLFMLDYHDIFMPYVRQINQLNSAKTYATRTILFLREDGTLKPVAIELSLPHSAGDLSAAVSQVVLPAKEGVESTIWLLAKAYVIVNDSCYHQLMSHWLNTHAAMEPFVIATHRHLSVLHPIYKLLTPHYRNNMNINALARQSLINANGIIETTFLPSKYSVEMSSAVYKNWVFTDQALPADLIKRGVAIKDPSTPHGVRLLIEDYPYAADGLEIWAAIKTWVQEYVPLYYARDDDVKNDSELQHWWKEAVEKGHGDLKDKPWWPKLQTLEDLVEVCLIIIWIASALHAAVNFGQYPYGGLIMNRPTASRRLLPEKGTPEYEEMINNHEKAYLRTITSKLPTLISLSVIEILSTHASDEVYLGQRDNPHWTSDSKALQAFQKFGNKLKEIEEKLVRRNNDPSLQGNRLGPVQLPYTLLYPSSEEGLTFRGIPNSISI
Description: The soybean LOX assay is used as an indication of anti-inflammatory activity ([Muller, 1994]), and therefore during the present investigation, 15-LOX from soybean was used for peroxidation of linoleic acid, and inhibition was measured as described previously with slight modifications ([Malterud and Rydland, 2000]). Briefly, 12.5 μL (2–0.062 mM) of sample was dissolved in DMSO, and added to 487.5 μL of enzyme solution (200 U/mL). The mixture was incubated at room temperature for 5 min. Absorbance was recorded immediately after the addition of 500 μL of substrate (250 μM linoleic acid in 0.2 M borate buffer, pH 9) every minute up to 5 min at 234 nm.
% inhibition of enzyme activity was calculated as,
%inhibition of enzyme activity=([ΔA1/Δt]−[ΔA2/Δt])/(ΔA1/Δt)×100
where ΔA1/Δt and ΔA2/Δt are the increase rate in absorbance at 234 nm for sample without test substance and with test substance, respectively.

[1] = target: T2, α-glucosidase from Saccharomyces cerevisiae (Saccharomyces cerevisiae, UniProt P53341); test: α-glucosidase inhibition assay; design: inhibition: dose or concentration left out as unconfirmed; conditions: for α-glucosidase % inhibition: at the highest test concentration of 2 mM; for inhibition: read-out: α-glucosidase % inhibition
T2 construct: purchased Sigma-Aldrich
T2 sequence (P53341 whole entry): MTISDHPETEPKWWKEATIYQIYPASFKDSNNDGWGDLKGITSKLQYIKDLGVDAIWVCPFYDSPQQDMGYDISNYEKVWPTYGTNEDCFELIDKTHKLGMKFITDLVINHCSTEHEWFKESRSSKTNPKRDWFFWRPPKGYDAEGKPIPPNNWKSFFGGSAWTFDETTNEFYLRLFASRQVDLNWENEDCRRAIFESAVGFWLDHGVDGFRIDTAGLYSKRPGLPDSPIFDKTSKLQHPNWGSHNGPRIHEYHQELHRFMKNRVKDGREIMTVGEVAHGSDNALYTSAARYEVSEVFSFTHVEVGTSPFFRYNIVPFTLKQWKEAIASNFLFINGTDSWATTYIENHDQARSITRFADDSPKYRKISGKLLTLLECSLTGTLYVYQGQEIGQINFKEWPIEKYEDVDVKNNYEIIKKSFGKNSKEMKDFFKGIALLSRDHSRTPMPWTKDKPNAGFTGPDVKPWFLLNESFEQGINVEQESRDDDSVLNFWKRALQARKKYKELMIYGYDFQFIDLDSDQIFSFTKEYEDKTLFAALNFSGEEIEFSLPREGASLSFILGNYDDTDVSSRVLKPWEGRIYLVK
Description: The α-glucosidase assay was carried out according as reported before ([Amin et al., 2016]). The test protocol is attached as Supplementary Material ([Amin et al., 2016]).
81 Inhibition of α-glucosidase.
82 α-Glucosidase inhibitory activity was assayed according to method adopted by Choudhary et al.
83 (2010) with some modifications. Briefly, 50 µL of a solution of α-glucosidase from
84 Saccharomyces cerevisiae (0.2 U/mL in 0.1 M phosphate buffer at pH 6.8, Sigma-Aldrich, St.
85 Louis, MO, USA) was incubated with 20 μL of test compounds or extracts at different
86 concentrations (ranging from 6 mM – 0.372 mM in 25% DMSO for isolated constituents or
87 from 5 mg to 0.039 mg/mL for extracts) at 37 °C for 10 min. Then 50 μl of the substrate,
88 p-nitrophenyl-α-D-glucopyranoside (0.7 mM stock, final concentration 0.29 mM) was added to
89 the reaction mixture and incubated again for 30 min at 37 °C. […]
91 from 834 µg to 6.5 µg/mL for extracts. The reaction was stopped by adding Na2CO3 (100 μl,
92 200 mM stock) solution and the absorbance was measured at 400 nm. Final DMSO
93 concentration remained below 7.5% during the assay.
94 concentration) was used as reference compound.
96 The % inhibition was calculated using the following formula:
98 % Inhibition = 100 – [OD (test sample) / OD (control)] × 100
100 Alpha-glucosidase inhibition was categorized as mild (1-25%), moderate (26-50%), high

[2] = system: AAPH induced linoleic acid peroxidation; test: Inhibition of linoleic acid lipid peroxidation, AAPH assay; conditions: slope of inhibition time (Tinh) vs. concentration of antioxidant
Description: The inhibition of linoleic acid lipid peroxidation was studied according to [Liegeois et al. (2000)] and [Rajic et al. (2010)]. Briefly, 10 μL of a 16 mM linoleic acid dispersion and 10 μL of the test compound (8-1 μM final concentration) were added to the UV cuvette containing 0.93 mL of 0.05 M phosphate buffer, pH 7.4. The oxidation reaction was initiated under air by the addition of 50 μL (40 mM) of AAPH solution. The rate of oxidation at 37°C was monitored by recording the increase of absorption at 234 nm caused by conjugated diene hydroperoxides. The results were compared to the standard inhibitor (Trolox). The AOP is defined as the slope of the curve representing the inhibition time of oxidation (Tinh) vs. the concentration of antioxidant and is expressed in min/μM.

[3] = at the highest test concentration

Row | Structure (SMILES) | 15-LOX assay % inhibition (15-LOX from soybean; [3]) | α-glucosidase % inhibition [1] | α-glucosidase % inhibition ([1]; listed as compound 1) | AAPH assay AOP (antioxidant power) [2] | IC50 (15-LOX from soybean) | inhibition [1] | 15-LOX assay % inhibition (15-LOX from soybean) | IC50 [1] | IC50 (15-LOX from soybean; read-out: 15-LOX IC50)
1 | CO[C@H]1C[C@@]2(O)[C@H](O)[C@@H](O)[C@](C)(OC)[C@H]2[C@@H](OC)O1 [Compound 1, Kickxiasine] | 30% | no activity | did not present any activity | 0.3 min/µM | – | – | – | – | –
2 | CC1(O)CCC2C(C(=O)O)=COC(OC3OC(CO)C(O)C(O)C3O)C21 (stereo not shown) [Compound 2, Mussaenosidic acid] | – | – | – | 0.2 min/µM | 220 µM | 15% | – | – | –
3 | COC(=O)C1=COC(OC2OC(CO)C(O)C(O)C2O)C2C1CCC2(C)O (stereo not shown) [Compound 3, Mussaenoside] | 37% | – | – | 0.1 min/µM | – | 9% | – | – | –
4 | COc1ccc(-c2cc(=O)c3c(O)c(OC)c(O)cc3o2)cc1 [Compound 5, Pectolinarigenin] | – | – | – | 0.2 min/µM | – | – | 46% | 230 µM | –
5 | COc1ccc(-c2cc(=O)c3c(O)c(OC)c(O[C@@H]4O[C@H](CO[C@@H]5O[C@@H](C)[C@H](O)[C@@H](O)[C@H]5O)[C@@H](O)[C@H](O)[C@H]4O)cc3o2)cc1 [Compound 6, Pectolinarin] | – | – | – | 0.3 min/µM | – | 48% | – | – | 250 µM
6 | COC(=O)c1ccc(O)cc1 [Compound 7, 4-Hydroxy benzoic acid methyl ester] | 30% | – | – | did not present any activity; also recorded: Not active | – | 47% | – | – | –
